From US20250002455A1, “NEW N-PHENYLPYRROLAMIDE INHIBITORS OF DNA GYRASE AND TOPOISOMERASE IV WITH ANTIBACTERIAL ACTIVITY” (priority 2020, published 2025)
Read-outs that look alike come from different tables or passages of the source.

Legend:
E. coli topoisomerase IV = target: T1, E. coli topoisomerase IV (Escherichia coli, UniProt P20083); assay: biochemical; conditions: for remaining activity at 1 µM: 1 μM compound
T1 construct: purchased Inspiralis
Protocol: (§1) Inhibitory activities for compounds of the present invention were determined on E. coli and S. aureus DNA gyrase and topoisomerase IV in an assay from Inspiralis on streptavidin-coated 96-well microtiter plates from Thermo scientific Pierce. […] After washing off the unbound oligonucleotide, the enzyme test was performed. […] Reaction solutions were incubated at 37° C. for 30 min. After that, the TF buffer (50 mM NaOAc with pH 5.0, 50 mM NaCl and 50 mM MgCl2) was added to terminate the enzymatic reaction. After additional incubation for 30 min at rt, during which biotin-oligonucleotide-plasmid triplex was formed, the unbound plasmid was washed off using TF buffer and SybrGOLD in T10 buffer (10 mM Tris HCl with pH 8.0 and 1 mM EDTA) was added. […] Initial screening was done at 100 or 10 nM concentration of inhibitors against E. coli DNA gyrase or 1 μM or 100 nM concentration against S. aureus DNA gyrase and E. coli and S. aureus topo IV. […] GraphPad Prism 6.0 software was used to calculate the IC50 values. The result is given as the average value of three independent measurements. […] Chemoth.

E. coli DNA gyrase = target: T2, E. coli DNA gyrase (Escherichia coli, UniProt P0AES6); assay: biochemical; conditions: for remaining activity at 1 µM: 1 μM compound
T2 construct: purchased Inspiralis
Protocol: (§2) Inhibitory activities for compounds of the present invention were determined on E. coli and S. aureus DNA gyrase and topoisomerase IV in an assay from Inspiralis on streptavidin-coated 96-well microtiter plates from Thermo scientific Pierce. […] After washing off the unbound oligonucleotide, the enzyme test was performed. […] Reaction solutions were incubated at 37° C. for 30 min. After that, the TF buffer (50 mM NaOAc with pH 5.0, 50 mM NaCl and 50 mM MgCl2) was added to terminate the enzymatic reaction. After additional incubation for 30 min at rt, during which biotin-oligonucleotide-plasmid triplex was formed, the unbound plasmid was washed off using TF buffer and SybrGOLD in T10 buffer (10 mM Tris HCl with pH 8.0 and 1 mM EDTA) was added. […] GraphPad Prism 6.0 software was used to calculate the IC50 values. The result is given as the average value of three independent measurements. […] Chemoth.

S. aureus DNA gyrase = target: T3, S. aureus DNA gyrase (Staphylococcus aureus, UniProt P0A0K8); assay: biochemical
T3 construct: purchased Inspiralis
Protocol: as §2

A. baumannii ATCC 17978 = assay: Microbroth dilution MIC (CLSI); format: cell-based; conditions: Acinetobacter baumannii, ATCC17978
Protocol: (§3) The chemical entities described in the present invention were assessed for their antimicrobial activity using a microbroth dilution assay as recommended by the CLSI (Methods for Dilution Antimicrobial Susceptibility Tests for Bacteria That Grow Aerobically, and Methods for Antimicrobial Susceptibility Testing of Anaerobic Bacteria, Clinical and Laboratory Standards Institute, Document M07-A8, and M11-A8, Wayne, PA 19087, USA, 2012.). Compounds were dissolved by using 100% DMSO. Serial two-fold dilutions of each compound were made by using 100% DMSO as the diluent.
(§4) A library of Gram-negative and Gram-positive microbes and their drug- and multidrug-resistant variants were employed as test organisms. The MIC (minimum inhibitory concentration) was determined as the lowest concentration of an individual drug that lead to no visible growth.

[1] = test system: S. aureus ATCC 700699 (VISA); assay: Microbroth dilution MIC (CLSI); format: cell-based; conditions: Staphylococcus aureus
Protocol: as §3, §4

S. aureus ATCC 29213 = assay: Microbroth dilution MIC (CLSI); format: cell-based; conditions: Staphylococcus aureus, ATCC29213
Protocol: as §3, §4

E. faecalis ATCC 29212 = assay: Microbroth dilution MIC (CLSI); format: cell-based; conditions: Enterococcus faecalis, ATCC29212
Protocol: as §3, §4

[2] = test system: S. aureus ATCC 43300 (MRSA); assay: Microbroth dilution MIC (CLSI); format: cell-based; conditions: Staphylococcus aureus
Protocol: as §3, §4

E. coli ATCC 25922 = assay: Microbroth dilution MIC (CLSI); format: cell-based; conditions: Escherichia coli, ATCC25922
Protocol: as §3, §4

E. faecium ATCC 700221 = assay: Microbroth dilution MIC (CLSI); format: cell-based; conditions: Enterococcus faecium, ATCC700221
Protocol: as §3, §4

P. aeruginosa ATCC 27853 = assay: Microbroth dilution MIC (CLSI); format: cell-based; conditions: Pseudomonas aeruginosa, ATCC27853
Protocol: as §3, §4

K. pneumoniae ATCC 10031 = assay: Microbroth dilution MIC (CLSI); format: cell-based; conditions: Klebsiella pneumoniae, ATCC10031
Protocol: as §3, §4

[3] = test system: E. spp. cloacae ATCC 13047; assay: Microbroth dilution MIC (CLSI); format: cell-based; conditions: Enterobacter cloacae, ATCC13047
Protocol: as §3, §4

[4] = target: T4, S. aureus topoisomerase IV (Staphylococcus aureus, UniProt P0C1S7); assay: Topoisomerase IV inhibition assay (Inspiralis, streptavidin-coated plates); format: biochemical; conditions: for remaining activity at 0.1 µM: 0.1 μM compound
T4 construct: purchased Inspiralis
Protocol: as §1

[5] = test system: A. baumannii (ATCC 19606); assay: Microbroth dilution MIC (CLSI); format: cell-based; conditions: Acinetobacter baumannii, ATCC19606; A. baumannii (ATCC 19606); read-out: MIC
Protocol: as §3, §4

E. faecium (ATCC 35667) = assay: Microbroth dilution MIC (CLSI); format: cell-based; conditions: Enterococcus faecium, ATCC35667; E. faecium (ATCC 35667); read-out: MIC
Protocol: as §3, §4

[6] = test system: K. pneumoniae (ATCC 700603); assay: Microbroth dilution MIC (CLSI); format: cell-based; conditions: Klebsiella pneumoniae, ATCC700603; K. pneumoniae (ATCC 700603); read-out: MIC
Protocol: as §3, §4

[7] = test system: E. aerogenes (ATCC 13408); assay: Microbroth dilution MIC (CLSI); format: cell-based, Enterobacter aerogenes; conditions: Klebsiella aerogenes, ATCC13408; E. aerogenes (ATCC 13408); read-out: MIC
Protocol: as §3, §4

[8] = S. aureus topo IV, read-out: RA (residual activity of the enzyme)
[9] = E. coli DNA gyrase, read-out: IC50
[10] = E. coli topo IV, read-out: IC50
[11] = S. aureus DNA gyrase, read-out: IC50
[12] = A. baumannii ATCC 17978, read-out: MIC
[13] = S. aureus ATCC 700699 (VISA), read-out: MIC
[14] = S. aureus ATCC 29213, read-out: MIC
[15] = E. faecalis ATCC 29212, read-out: MIC
[16] = S. aureus ATCC 43300 (MRSA), read-out: MIC
[17] = E. coli ATCC 25922, read-out: MIC
[18] = E. faecium ATCC 700221, read-out: MIC
[19] = P. aeruginosa ATCC 27853, read-out: MIC
[20] = K. pneumoniae ATCC 10031, read-out: MIC
[21] = E. spp. cloacae ATCC 13047, read-out: MIC
[22] = E. coli DNA gyrase, read-out: RA (residual activity of the enzyme)
[23] = E. coli topo IV, read-out: RA (residual activity of the enzyme)

T3 sequence (P20831 whole entry): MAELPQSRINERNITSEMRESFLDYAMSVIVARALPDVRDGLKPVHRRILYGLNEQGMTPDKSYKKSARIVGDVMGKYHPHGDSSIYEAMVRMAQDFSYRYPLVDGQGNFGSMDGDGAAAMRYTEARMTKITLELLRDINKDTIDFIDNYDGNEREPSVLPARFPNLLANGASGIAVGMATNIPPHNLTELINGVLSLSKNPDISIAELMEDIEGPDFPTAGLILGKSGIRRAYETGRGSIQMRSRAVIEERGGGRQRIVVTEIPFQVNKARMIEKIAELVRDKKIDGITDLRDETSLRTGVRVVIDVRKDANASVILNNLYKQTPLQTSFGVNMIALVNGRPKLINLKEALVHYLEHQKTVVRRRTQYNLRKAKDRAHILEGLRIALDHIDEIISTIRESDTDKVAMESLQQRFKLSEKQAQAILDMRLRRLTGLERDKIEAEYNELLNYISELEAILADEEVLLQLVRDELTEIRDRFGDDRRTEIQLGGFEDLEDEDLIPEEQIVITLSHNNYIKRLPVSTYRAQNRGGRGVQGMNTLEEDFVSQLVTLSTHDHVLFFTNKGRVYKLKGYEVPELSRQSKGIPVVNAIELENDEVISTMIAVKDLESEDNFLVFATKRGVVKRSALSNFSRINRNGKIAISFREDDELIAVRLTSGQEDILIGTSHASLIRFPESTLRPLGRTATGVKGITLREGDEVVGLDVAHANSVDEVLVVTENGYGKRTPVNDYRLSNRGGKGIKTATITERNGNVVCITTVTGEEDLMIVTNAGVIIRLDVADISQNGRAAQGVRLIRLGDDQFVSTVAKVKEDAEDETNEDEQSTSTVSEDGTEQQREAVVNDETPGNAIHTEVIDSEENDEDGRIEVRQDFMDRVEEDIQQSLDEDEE
T3 sequence (P0A0K8 whole entry): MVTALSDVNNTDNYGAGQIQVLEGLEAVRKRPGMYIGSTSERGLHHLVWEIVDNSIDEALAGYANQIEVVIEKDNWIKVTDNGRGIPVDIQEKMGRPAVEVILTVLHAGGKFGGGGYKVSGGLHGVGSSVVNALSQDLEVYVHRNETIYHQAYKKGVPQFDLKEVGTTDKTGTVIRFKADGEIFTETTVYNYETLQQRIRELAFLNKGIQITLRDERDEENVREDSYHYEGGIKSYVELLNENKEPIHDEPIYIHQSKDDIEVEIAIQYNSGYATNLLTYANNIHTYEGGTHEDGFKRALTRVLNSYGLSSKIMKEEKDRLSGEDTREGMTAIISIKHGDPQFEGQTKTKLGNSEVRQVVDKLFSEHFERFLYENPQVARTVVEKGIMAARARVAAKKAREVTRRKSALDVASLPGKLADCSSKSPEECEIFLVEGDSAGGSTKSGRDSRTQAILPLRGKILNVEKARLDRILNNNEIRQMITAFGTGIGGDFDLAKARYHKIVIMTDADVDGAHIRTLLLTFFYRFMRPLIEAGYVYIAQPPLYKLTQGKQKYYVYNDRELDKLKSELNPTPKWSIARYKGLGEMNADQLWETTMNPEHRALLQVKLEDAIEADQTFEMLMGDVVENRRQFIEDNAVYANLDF
T4 sequence (P0C1U9 whole entry): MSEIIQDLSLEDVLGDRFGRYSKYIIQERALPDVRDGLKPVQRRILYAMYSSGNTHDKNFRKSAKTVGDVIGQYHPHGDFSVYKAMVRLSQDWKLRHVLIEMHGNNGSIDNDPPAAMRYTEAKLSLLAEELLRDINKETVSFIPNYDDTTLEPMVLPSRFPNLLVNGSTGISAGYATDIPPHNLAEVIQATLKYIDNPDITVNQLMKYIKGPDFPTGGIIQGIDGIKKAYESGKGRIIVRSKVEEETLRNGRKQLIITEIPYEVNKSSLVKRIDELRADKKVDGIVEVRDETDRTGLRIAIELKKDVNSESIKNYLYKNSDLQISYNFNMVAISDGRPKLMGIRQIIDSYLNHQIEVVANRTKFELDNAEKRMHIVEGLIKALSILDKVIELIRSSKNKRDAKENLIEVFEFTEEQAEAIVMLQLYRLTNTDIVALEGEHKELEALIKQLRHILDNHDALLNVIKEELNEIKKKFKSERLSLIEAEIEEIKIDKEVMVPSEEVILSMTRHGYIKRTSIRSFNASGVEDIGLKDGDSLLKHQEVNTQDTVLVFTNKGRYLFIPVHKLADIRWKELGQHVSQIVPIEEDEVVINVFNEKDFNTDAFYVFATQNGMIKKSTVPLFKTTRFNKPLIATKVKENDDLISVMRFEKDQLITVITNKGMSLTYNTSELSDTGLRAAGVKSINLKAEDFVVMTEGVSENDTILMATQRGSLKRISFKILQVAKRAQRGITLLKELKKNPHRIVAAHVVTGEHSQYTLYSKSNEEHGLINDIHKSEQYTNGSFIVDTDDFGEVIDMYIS
T4 sequence (P0C1S7 whole entry): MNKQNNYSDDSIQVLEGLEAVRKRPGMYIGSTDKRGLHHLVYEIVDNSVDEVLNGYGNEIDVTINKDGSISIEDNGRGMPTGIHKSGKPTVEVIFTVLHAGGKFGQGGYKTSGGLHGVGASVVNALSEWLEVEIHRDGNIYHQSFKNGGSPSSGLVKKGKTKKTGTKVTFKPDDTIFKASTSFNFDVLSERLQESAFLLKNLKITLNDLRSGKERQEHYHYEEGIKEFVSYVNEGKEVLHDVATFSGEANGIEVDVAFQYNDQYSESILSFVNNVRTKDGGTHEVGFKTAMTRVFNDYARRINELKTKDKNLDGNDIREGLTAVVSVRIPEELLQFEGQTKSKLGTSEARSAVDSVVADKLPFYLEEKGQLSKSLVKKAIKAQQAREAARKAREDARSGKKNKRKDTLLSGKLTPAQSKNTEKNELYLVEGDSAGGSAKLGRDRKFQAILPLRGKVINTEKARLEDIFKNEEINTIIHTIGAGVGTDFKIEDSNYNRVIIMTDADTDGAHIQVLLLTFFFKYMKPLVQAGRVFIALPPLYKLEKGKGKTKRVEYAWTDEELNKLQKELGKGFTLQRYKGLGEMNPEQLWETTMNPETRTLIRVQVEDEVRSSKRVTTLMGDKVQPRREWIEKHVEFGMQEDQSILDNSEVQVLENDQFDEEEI
T1 sequence (P0AFI2 whole entry): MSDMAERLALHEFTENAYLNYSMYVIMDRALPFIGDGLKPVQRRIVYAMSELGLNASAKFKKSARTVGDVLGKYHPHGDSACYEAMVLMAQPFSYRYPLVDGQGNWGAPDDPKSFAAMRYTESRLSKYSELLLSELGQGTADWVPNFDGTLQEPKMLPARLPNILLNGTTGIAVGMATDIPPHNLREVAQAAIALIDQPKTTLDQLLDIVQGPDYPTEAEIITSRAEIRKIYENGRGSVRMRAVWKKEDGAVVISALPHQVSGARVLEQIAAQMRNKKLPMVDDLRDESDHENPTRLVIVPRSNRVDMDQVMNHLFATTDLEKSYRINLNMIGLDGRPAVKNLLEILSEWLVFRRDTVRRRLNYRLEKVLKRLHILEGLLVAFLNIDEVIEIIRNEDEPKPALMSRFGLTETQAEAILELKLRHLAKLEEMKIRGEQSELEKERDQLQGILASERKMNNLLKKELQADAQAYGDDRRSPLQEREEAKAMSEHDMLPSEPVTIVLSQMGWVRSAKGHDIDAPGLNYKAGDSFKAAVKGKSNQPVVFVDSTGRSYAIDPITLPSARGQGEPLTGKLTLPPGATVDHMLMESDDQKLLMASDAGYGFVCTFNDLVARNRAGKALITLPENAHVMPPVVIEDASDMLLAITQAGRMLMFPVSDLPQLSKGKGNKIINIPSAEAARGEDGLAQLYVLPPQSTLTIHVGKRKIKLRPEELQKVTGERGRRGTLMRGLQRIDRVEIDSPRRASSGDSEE
T1 sequence (P20083 whole entry): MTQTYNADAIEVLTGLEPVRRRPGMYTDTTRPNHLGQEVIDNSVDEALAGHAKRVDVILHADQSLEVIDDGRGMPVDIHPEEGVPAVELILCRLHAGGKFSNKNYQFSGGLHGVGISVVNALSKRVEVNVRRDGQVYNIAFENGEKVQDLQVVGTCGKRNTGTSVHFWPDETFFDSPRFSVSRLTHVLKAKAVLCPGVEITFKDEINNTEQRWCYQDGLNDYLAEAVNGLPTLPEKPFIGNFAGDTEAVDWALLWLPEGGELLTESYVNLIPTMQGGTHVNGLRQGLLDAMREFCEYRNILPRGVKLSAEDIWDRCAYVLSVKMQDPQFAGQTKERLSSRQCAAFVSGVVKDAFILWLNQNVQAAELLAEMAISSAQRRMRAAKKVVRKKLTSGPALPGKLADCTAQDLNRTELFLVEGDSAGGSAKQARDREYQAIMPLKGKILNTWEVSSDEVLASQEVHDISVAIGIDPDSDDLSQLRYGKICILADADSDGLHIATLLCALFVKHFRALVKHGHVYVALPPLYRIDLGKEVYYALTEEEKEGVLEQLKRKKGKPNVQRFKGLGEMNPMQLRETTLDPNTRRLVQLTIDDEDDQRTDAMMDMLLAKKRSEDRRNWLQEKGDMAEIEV

Compound	IC50 (E. coli DNA gyrase; [9]) [nM]	IC50 (S. aureus DNA gyrase; [11]) [nM]	MIC (A. baumannii ATCC 17978; [12]) [µg/mL]	MIC [1, 13] [µg/mL]	MIC (S. aureus ATCC 29213; [14]) [µg/mL]	MIC (E. faecalis ATCC 29212; [15]) [µg/mL]	MIC [2, 16] [µg/mL]	MIC (E. coli ATCC 25922; [17]) [µg/mL]	MIC (E. faecium ATCC 700221; [18]) [µg/mL]	MIC (P. aeruginosa ATCC 27853; [19]) [µg/mL]	MIC (K. pneumoniae ATCC 10031; [20]) [µg/mL]	MIC [3, 21] [µg/mL]	MIC [5] [µg/mL]	MIC (E. faecium (ATCC 35667)) [µg/mL]	MIC [6] [µg/mL]	MIC [7] [µg/mL]	further results
Cc1[nH]c(C(=O)Nc2ccc(-c3noc(=O)[nH]3)cc2NC2CCNCC2)c(Cl)c1Cl.Cl [Example 4, 4-((2-(3,4-Dichloro-5-methyl-1H-pyrrole-2-carboxamido)-5-(5-oxo-4,5-dihydro-1,2,4-oxadiazol-3-yl)phenyl)amino)piperidin-1-ium chloride]																	IC50 (E. coli topoisomerase IV): 1180 nM; IC50 (E. coli DNA gyrase): 9.66 nM; IC50 (S. aureus DNA gyrase): 249 nM; MIC (A. baumannii ATCC 17978): > 64 µg/mL; MIC [1]: > 64 µg/mL; MIC (S. aureus ATCC 29213): > 64 µg/mL; MIC (E. faecalis ATCC 29212): > 64 µg/mL; MIC [2]: > 64 µg/mL; MIC (E. coli ATCC 25922): > 64 µg/mL; MIC (E. faecium ATCC 700221): > 64 µg/mL; MIC (P. aeruginosa ATCC 27853): > 64 µg/mL; MIC (K. pneumoniae ATCC 10031): > 64 µg/mL; MIC [3]: > 64 µg/mL
Cc1[nH]c(C(=O)Nc2ccc(-c3noc(=O)[nH]3)cc2N2CCOCC2)c(Cl)c1Cl [Example 8, 3,4-Dichloro-5-methyl-N-(2-morpholino-4-(5-oxo-4,5-dihydro-1,2,4-oxadiazol-3-yl)phenyl)-1H-pyrrole-2-carboxamide]	13																remaining activity at 0.1 µM [4, 8]: 51%; remaining activity at 1 µM ([4]; S. aureus topo IV, 1 μM compound, read-out: RA (residual activity of the enzyme)): 10%
Cc1[nH]c(C(=O)Nc2ccc(-c3nn[nH]n3)cc2N2CCCC(CN)C2)c(Cl)c1Cl.Cl (stereo not drawn) [Example 9, (1-(2-(3,4-Dichloro-5-methyl-1H-pyrrole-2-carboxamido)-5-(2H-tetrazol-5-yl)phenyl)piperidin-3-yl)methanaminium chloride]	2.16	35	> 64	> 64	16	8	> 64	> 64	16	> 64	64	> 64					IC50 (E. coli topoisomerase IV; [10]): 60.3 nM
Cc1[nH]c(C(=O)Nc2ccc(C(=O)O)cc2N2CCC[C@H](N)C2)c(Cl)c1Cl.Cl [Example 14, (S)-1-(5-carboxy-2-(3,4-dichloro-5-methyl-1H-pyrrole-2-carboxamido)phenyl)piperidin-3-aminium chloride]					≥ 64			≥ 64		≥ 64			≥ 64	≥ 64	≥ 64	≥ 64	remaining activity at 0.1 µM (E. coli DNA gyrase; E. coli DNA gyrase, 0.1 μM compound, read-out: RA (residual activity of the enzyme)): 52%; remaining activity at 1 µM (E. coli DNA gyrase; [22]): -2%
Cc1[nH]c(C(=O)Nc2ccc(-c3n[nH]c(=O)o3)cc2N2CC[C@H](N)C2)c(Cl)c1Cl.Cl [Example 20, (S)-1-(2-(3,4-Dichloro-5-methyl-1H-pyrrole-2-carboxamido)-5-(5-oxo-4,5-dihydro-1,3,4-oxadiazol-2-yl)phenyl)pyrrolidin-3-aminium chloride]	2.8		8		2	1	2	8		32	0.064	32					remaining activity at 1 µM (E. coli topoisomerase IV; [23]): 105%; remaining activity at 0.1 µM [4, 8]: 99%; remaining activity at 0.01 µM (S. aureus DNA gyrase; S. aureus DNA gyrase, 0.01 μM compound, read-out: RA (residual activity of the enzyme)): 90%; remaining activity at 0.1 µM (S. aureus DNA gyrase; S. aureus DNA gyrase, 0.1 μM compound, read-out: RA (residual activity of the enzyme)): 39%
Cc1nnc(-c2ccc(NC(=O)c3[nH]c(C)c(Cl)c3Cl)c(OC(C)C)c2)o1 [Example 21, 3,4-Dichloro-N-(2-isopropoxy-4-(5-methyl-1,3,4-oxadiazol-2-yl)phenyl)-5-methyl-1H-pyrrole-2-carboxamide]					≥ 64			≥ 64		≥ 64			≥ 64	≥ 64	≥ 64	≥ 64	remaining activity at 1 µM (E. coli DNA gyrase; [22]): 95%
Cc1[nH]c(C(=O)Nc2ccc(-n3nn[nH]c3=O)cc2N2CC[C@H](N)C2)c(Cl)c1Cl.Cl [Example 22, (S)-1-(2-(3,4-Dichloro-5-methyl-1H-pyrrole-2-carboxamido)-5-(5-oxo-4,5-dihydro-1H-tetrazol-1-yl)phenyl)pyrrolidin-3-aminium chloride]	4.9	121	≥ 32	> 64	≥ 32	> 64	≥ 32	≥ 32	≥ 32	≥ 32	≥ 32	≥ 32					remaining activity at 1 µM (E. coli topoisomerase IV; [23]): 97%; remaining activity at 10 µM (E. coli topoisomerase IV; E. coli topo IV, 10 μM compound, read-out: RA (residual activity of the enzyme)): 26%
Cc1[nH]c(C(=O)Nc2ccc(-n3nn[nH]c3=O)cc2N2CCC(N)CC2)c(Cl)c1Cl.Cl [Example 23, 1-(2-(3,4-Dichloro-5-methyl-1H-pyrrole-2-carboxamido)-5-(5-oxo-4,5-dihydro-1H-tetrazol-1-yl)phenyl)piperidin-4-aminium chloride]	3.96	216	≥ 32	≥ 32	≥ 32	≥ 32	≥ 32	≥ 32	≥ 32	≥ 32	≥ 32	≥ 32					IC50 (E. coli topoisomerase IV; [10]): 11500 nM; IC50 [4]: 6200 nM
Cl.N[C@@H]1CCN(c2cc(C(=O)NCC(=O)O)ccc2NC(=O)c2cc(Br)c(Br)[nH]2)C1 [Example 37, (R)-1-(5-((Carboxymethyl)carbamoyl)-2-(4,5-dibromo-1H-pyrrole-2-carboxamido)phenyl)pyrrolidin-3-aminium chloride]	2380				≥ 64			≥ 64		≥ 64			≥ 64	≥ 64	≥ 64	≥ 64	remaining activity at 10 µM (S. aureus DNA gyrase; S. aureus DNA gyrase, 10 μM compound, read-out: RA (residual activity of the enzyme)): 78%
